For 7 molecules, IC50 results are on record in BindingDB's records for patent US20250026748 (Repare Therapeutics, 2025).

DNA polymerase theta, sequence (O75417 whole entry): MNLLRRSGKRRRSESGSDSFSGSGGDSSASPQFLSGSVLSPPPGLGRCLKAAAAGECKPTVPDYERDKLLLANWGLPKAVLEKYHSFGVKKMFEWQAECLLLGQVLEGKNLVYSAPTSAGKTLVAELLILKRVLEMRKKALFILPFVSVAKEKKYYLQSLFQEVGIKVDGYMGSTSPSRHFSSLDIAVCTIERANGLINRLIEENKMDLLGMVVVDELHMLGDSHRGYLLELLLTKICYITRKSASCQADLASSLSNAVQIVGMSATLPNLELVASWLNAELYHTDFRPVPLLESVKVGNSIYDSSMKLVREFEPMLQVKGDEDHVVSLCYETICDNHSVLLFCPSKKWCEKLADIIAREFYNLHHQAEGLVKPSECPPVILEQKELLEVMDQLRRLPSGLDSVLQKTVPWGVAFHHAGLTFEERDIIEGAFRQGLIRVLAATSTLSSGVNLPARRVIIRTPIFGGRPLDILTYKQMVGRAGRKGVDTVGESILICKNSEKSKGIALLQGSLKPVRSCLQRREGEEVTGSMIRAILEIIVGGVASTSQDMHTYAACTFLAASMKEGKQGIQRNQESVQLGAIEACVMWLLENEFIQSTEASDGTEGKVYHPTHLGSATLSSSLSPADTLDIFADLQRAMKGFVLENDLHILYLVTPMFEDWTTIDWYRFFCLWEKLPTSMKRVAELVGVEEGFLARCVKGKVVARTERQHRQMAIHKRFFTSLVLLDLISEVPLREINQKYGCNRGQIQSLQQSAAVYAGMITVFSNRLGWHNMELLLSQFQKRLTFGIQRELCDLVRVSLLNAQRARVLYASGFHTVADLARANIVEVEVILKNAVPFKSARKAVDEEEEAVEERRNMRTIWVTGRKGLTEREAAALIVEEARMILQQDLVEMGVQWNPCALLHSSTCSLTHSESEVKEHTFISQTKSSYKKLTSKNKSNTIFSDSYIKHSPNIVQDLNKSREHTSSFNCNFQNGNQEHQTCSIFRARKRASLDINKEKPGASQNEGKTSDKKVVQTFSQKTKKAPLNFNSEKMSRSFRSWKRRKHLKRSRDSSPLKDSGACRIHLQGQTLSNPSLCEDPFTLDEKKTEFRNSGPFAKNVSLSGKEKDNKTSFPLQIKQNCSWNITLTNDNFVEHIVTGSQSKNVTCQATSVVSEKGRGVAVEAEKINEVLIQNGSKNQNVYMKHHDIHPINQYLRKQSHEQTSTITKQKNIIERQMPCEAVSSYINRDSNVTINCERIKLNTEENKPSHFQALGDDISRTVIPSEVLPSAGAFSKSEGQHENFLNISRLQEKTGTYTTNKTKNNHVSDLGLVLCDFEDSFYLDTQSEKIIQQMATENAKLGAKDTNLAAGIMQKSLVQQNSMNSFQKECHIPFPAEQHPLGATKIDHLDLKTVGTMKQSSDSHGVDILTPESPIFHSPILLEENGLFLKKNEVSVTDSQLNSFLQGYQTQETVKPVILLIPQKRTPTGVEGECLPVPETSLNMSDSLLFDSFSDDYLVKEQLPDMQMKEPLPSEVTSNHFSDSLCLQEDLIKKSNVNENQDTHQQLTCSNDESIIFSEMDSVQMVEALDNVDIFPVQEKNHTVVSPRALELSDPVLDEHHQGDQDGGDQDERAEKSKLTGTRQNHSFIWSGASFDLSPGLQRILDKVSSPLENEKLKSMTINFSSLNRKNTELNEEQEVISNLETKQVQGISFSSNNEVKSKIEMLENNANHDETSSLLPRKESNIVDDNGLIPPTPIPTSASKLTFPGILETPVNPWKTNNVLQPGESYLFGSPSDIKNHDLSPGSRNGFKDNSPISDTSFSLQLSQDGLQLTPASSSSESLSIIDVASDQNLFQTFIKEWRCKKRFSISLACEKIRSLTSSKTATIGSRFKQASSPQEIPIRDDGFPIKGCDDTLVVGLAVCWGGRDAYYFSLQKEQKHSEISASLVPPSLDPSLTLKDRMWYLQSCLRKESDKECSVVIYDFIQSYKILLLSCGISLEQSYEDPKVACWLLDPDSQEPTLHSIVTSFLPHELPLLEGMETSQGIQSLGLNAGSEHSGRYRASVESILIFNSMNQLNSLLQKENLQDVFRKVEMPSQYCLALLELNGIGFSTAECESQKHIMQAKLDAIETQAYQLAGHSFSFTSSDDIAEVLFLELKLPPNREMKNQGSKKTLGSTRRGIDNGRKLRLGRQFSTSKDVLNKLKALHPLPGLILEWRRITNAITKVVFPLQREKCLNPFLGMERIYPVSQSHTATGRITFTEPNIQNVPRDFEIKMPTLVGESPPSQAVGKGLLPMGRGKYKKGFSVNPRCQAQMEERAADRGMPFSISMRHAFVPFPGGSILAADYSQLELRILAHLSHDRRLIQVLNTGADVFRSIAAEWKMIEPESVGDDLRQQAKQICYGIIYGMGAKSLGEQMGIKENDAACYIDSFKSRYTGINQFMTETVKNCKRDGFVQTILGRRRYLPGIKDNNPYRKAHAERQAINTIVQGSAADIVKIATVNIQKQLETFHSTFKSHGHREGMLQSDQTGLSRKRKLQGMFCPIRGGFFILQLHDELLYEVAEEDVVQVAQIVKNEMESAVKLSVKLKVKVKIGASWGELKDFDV

The target in this experiment is DNA polymerase theta (Homo sapiens, UniProt O75417). Kind of experiment: Polθ ATPase Enzymatic Assay (0.5 nM Enzyme Concentration). As to the method:
Following pre-incubation with inhibitors, DNA (Fork C) at 20 nM and ATP at 100 μM are added to start the reaction. Enzymatic reaction proceeds at rt for 180 min ATP consumption is measured using the ADP-Glo assay from Promega.
In general, IC50 refers to the point on the concentration scale where inhibition reaches its midpoint. Lower therefore signals inhibition by little substance. As to `COc1cnc(Cl)cc1-c1cnccc1C(=O)Nc1ncc(C#CC2CC2)s1` [US20250026748, Compound 38], the IC50 was 1.1 nM.

`COc1ccc(Cl)cc1-c1cnccc1C(=O)Nc1nnc(C#CC2CC2)s1` [US20250026748, Compound 57] returned an IC50 of 0.37 nM.

In turn, `COc1ccc(Cl)cc1-c1cn(Cc2nccs2)c(=O)cc1C(=O)Nc1nnc(C#CC2CC2)s1` [US20250026748, Compound 63] yielded an IC50 of 1.9 nM.

With `COc1cnc(C(F)F)cc1-c1nc(-c2ccn(C)n2)cnc1C(=O)Nc1nnc(C#CC2CC2)s1` [US20250026748, Compound 140], half-maximal inhibition (IC50) was put at 38 nM.

The molecule `COc1cnc(Cl)cc1-c1cc(-c2nnc(C)o2)ccc1C(=O)Nc1nnc(C#CC2CC2)s1` [US20250026748, Compound 305] gave an IC50 of 0.38 nM.

`COc1ccc(C(F)(F)F)cc1-c1cn(C)c(=O)cc1C(=O)Nc1nnc(C#CC2CCOC2)s1` (configuration not stated) [US20250026748, Compound 340]: the IC50 was 12 nM.

The molecule `COc1cnc(C(F)F)cc1-c1cc(-c2ccn(C)n2)ncc1C(=O)Nc1nnc(C#Cc2cc(C)[nH]n2)s1` [US20250026748, Compound 370] had an IC50 of 2.9 nM.
